Results as given in ChEMBL document CHEMBL4507326, “Data for DCP probe TP-030-2” (2021).

Tests used:
[1] = target: Muscarinic acetylcholine receptor M4 (Homo sapiens) (UniProt P08173); details: Compound concentration 10.0 uM
Ephrin type-B receptor 3 = Ephrin type-B receptor 3 (Homo sapiens, UniProt P54753); test: EphB3(EPB3LGRJ) Takeda global kinase panel
[2] = target: Adenosine receptor A1 (Homo sapiens) (UniProt P30542); details: Compound concentration 10.0 uM
[3] = target: Ribosomal protein S6 kinase alpha-1 (Homo sapiens, UniProt Q15418); test: RSK1 [p90RSK(R6A2CGE1)] Takeda global kinase panel
[4] = target: Cyclin-dependent kinase 17 (Homo sapiens, UniProt Q00537); test: PCTAIRE2(CD17SGS1) Takeda global kinase panel
Cyclin-dependent kinase 17, sequence (Q00537 whole entry): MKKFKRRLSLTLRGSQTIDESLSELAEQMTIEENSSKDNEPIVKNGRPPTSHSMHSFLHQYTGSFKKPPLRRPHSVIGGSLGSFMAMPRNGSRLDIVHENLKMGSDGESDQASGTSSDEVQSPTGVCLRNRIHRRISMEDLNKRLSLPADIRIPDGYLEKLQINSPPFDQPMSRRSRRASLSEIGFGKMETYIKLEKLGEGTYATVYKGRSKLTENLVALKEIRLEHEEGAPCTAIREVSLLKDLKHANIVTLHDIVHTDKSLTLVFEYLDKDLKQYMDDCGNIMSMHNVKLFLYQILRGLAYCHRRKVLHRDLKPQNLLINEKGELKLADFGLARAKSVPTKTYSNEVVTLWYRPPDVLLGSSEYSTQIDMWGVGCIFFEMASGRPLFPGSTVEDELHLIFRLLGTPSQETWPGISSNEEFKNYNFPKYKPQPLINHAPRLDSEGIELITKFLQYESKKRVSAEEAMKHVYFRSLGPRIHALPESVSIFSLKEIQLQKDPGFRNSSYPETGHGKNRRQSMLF

[5] = target: Calcium/calmodulin-dependent protein kinase type IV (Homo sapiens, UniProt Q16566); test: CaMK4(CAM4LGY1) Takeda global kinase panel
[6] = target: Cytoplasmic tyrosine-protein kinase BMX (Homo sapiens, UniProt P51813); test: Etk [BMX(BMX1CGF1)] Takeda global kinase panel
[7] = target: Sigma intracellular receptor 2 (Homo sapiens, UniProt Q5BJF2); test: GPCRScan assay: inhibition of Sigma 2; design: radioligand conc. used [nm] 5.0, parental cells HEKT
Sigma intracellular receptor 2, sequence (Q5BJF2 whole entry): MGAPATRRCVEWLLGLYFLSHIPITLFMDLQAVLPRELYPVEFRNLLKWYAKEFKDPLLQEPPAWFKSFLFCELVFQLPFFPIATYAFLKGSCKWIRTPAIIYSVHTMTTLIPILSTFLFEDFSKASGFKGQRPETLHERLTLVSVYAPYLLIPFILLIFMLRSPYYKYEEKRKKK

Rattus norvegicus = organism: Rattus norvegicus; test: Inhibition of Imidazoline I2, Central at 10 µM in the Eurofins-Panlabs radioligand binding assay (Eurofins_assay_241000); design: ligand concentration 2 nM; details: Compound concentration 10.0 uM
[8] = target: Receptor-interacting serine/threonine-protein kinase 1 (Homo sapiens, UniProt Q13546); test: RIPK1(RIP1PGN1) Takeda global kinase panel
Receptor-interacting serine/threonine-protein kinase 1, sequence (Q13546 whole entry): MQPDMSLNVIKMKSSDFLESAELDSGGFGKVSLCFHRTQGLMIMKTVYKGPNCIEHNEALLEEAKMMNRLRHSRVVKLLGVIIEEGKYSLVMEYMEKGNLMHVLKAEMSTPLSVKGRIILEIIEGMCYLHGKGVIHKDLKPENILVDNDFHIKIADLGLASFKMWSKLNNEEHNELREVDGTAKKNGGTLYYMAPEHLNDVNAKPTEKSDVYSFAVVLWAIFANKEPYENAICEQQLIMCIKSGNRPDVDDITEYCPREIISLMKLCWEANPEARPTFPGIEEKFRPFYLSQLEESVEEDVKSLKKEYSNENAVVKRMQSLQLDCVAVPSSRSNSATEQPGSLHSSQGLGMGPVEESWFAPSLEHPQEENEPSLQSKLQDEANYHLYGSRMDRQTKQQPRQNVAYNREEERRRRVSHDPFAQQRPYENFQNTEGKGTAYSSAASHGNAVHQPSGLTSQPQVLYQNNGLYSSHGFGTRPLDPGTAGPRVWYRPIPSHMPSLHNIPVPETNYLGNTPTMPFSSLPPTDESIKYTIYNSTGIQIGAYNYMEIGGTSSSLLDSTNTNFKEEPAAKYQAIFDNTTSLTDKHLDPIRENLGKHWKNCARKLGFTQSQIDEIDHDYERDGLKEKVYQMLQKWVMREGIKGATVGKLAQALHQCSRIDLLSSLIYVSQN

[9] = target: 5-hydroxytryptamine receptor 2B (Homo sapiens) (UniProt P41595); details: Compound concentration 10.0 uM
[10] = target: Serine/threonine-protein kinase PAK 5 (Homo sapiens, UniProt Q9P286); test: PAK5(PAK7LGF1) Takeda global kinase panel
Serine/threonine-protein kinase PAK 5, sequence (Q9P286 whole entry): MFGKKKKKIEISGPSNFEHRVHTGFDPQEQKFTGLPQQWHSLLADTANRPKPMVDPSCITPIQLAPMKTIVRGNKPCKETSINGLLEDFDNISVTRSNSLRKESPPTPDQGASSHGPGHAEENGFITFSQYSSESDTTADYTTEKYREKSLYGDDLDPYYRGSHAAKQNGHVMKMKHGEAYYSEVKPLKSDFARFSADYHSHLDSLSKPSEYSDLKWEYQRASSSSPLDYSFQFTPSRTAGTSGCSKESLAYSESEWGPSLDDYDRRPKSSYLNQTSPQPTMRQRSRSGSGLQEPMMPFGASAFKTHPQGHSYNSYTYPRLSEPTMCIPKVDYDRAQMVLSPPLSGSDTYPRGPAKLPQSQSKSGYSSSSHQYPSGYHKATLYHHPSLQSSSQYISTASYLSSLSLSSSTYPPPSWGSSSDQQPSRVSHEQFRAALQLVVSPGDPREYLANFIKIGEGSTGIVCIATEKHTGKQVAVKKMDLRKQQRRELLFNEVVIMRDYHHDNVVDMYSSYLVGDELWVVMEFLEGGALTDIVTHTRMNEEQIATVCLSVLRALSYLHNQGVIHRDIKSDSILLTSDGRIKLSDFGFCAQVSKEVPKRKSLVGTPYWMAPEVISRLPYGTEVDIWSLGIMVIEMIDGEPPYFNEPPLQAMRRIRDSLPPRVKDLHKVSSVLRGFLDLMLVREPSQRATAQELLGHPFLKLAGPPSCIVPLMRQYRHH

[11] = target: Mitogen-activated protein kinase 13 (Homo sapiens, UniProt O15264); test: p38delta(MP13LGP1) Takeda global kinase panel
Mitogen-activated protein kinase 13, sequence (O15264 whole entry): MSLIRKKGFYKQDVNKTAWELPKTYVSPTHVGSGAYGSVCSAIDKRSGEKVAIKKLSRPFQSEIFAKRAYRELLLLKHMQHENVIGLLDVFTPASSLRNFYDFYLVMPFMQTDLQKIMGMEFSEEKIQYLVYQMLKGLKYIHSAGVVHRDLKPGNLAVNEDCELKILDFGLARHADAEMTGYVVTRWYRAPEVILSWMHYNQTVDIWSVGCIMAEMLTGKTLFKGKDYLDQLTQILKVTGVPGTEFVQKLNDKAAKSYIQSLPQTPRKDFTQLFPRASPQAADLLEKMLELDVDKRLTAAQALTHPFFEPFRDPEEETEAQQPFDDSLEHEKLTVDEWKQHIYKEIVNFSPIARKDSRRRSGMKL

[12] = target: Mitogen-activated protein kinase kinase kinase 20 (Homo sapiens, UniProt Q9NYL2); test: ZAK(ZAK1LGY1) Takeda global kinase panel
[13] = target: Phosphorylase b kinase gamma catalytic chain, skeletal muscle/heart isoform (Homo sapiens, UniProt Q16816); test: PhKgamma1(PHG1LHY1) Takeda global kinase panel
[14] = target: Protein kinase C theta type (Homo sapiens, UniProt Q04759); test: PKCtheta(PRKQLGM5) Takeda global kinase panel
[15] = target: voltage-gated sodium channel, site 2 (Rattus norvegicus, UniProt F1LQQ7+O08562+O88420+O88457+P04774+P04775+P08104+P15389+P15390+Q62968); test: Inhibition of Sodium Channel, Site 2 at 10 µM in the Eurofins-Panlabs radioligand binding assay (Eurofins_assay_279510); type: protein assay; design: ligand concentration 5 nM, non-specific ligand with concentration 100 µM Veratridine, incubation time 60 min, incubation temperature 37 °C; details: male, Wistar, rat whole brain (except cerebellum) membranes, probe [3H] Batrachotoxinin, compound concentration 10 uM
[16] = target: Glutamate NMDA receptor (Rattus norvegicus) (UniProt P35439+Q00959+Q00960+Q00961+Q62645+Q8VHN2+Q9R1M7); details: Compound concentration 10.0 uM
[17] = target: Bone morphogenetic protein receptor type-1B (Homo sapiens, UniProt O00238); test: BMPR1B(BM1BLGF1) Takeda global kinase panel
[18] = target: Serine/threonine-protein kinase B-raf (Homo sapiens, UniProt P15056); test: BRAF(BRAFLGY1) Takeda global kinase panel
[19] = target: Epidermal growth factor receptor (Homo sapiens, UniProt P00533); test: EGFR(EGFRMGB1) Takeda global kinase panel
[20] = target: Serine/threonine-protein kinase 26 (Homo sapiens, UniProt Q9P289); test: MST4(MST4LGC1) Takeda global kinase panel
Ephrin type-A receptor 1 = Ephrin type-A receptor 1 (Homo sapiens, UniProt P21709); test: EphA1(EPA1LGY1) Takeda global kinase panel
[21] = target: Adenosine receptor A2a (Homo sapiens) (UniProt P29274); details: Compound concentration 10.0 uM
[22] = target: TRAF2 and NCK-interacting protein kinase (Homo sapiens, UniProt Q9UKE5); test: TNIK [ZC2(TNIKLGF1)] Takeda global kinase panel
TRAF2 and NCK-interacting protein kinase, sequence (Q9UKE5 whole entry): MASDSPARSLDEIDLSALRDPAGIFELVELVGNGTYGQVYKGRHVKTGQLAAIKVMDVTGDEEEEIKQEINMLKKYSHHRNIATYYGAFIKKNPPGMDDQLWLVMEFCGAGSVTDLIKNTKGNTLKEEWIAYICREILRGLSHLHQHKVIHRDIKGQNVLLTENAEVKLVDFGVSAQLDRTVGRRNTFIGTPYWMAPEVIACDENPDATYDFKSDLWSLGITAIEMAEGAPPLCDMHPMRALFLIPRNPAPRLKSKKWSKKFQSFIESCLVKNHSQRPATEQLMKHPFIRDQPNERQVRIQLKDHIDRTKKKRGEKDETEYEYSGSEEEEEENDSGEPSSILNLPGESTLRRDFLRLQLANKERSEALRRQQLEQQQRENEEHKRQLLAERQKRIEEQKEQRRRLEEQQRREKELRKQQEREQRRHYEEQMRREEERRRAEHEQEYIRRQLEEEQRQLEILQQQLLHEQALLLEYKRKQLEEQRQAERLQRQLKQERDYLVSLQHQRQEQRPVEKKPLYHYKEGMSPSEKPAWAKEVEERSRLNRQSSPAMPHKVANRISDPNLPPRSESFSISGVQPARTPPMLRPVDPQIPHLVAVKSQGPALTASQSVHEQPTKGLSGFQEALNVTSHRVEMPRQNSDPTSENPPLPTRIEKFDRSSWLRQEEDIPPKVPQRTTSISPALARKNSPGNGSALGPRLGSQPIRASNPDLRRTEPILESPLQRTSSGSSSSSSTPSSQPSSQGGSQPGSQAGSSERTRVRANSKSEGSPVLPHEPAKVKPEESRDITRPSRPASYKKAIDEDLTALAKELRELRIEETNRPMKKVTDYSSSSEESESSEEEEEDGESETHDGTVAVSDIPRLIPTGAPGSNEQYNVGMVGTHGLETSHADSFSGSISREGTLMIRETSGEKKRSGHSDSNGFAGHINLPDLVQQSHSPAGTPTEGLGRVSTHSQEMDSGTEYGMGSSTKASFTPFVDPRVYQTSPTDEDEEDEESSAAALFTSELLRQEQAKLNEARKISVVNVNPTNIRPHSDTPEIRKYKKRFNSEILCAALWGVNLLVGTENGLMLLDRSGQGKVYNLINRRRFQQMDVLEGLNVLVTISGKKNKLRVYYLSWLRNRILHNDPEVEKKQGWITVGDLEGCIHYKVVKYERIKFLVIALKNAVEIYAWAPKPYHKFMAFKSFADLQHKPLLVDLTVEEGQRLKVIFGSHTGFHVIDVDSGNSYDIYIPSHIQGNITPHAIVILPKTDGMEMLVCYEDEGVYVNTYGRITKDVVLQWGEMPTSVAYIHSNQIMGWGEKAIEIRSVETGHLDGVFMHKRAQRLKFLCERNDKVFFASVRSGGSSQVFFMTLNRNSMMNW

[23] = target: Mitogen-activated protein kinase 14 (Homo sapiens, UniProt Q16539); test: p38alpha(MP14LGI1) Takeda global kinase panel
[24] = target: 5-hydroxytryptamine receptor 1B (Homo sapiens) (UniProt P28222); details: Compound concentration 10.0 uM
[25] = target: Prostaglandin E2 receptor EP4 subtype (Homo sapiens) (UniProt P35408); test: Inhibition of Prostanoid EP4 at 10 µM in the Eurofins-Panlabs radioligand binding assay (Eurofins_assay_268420); design: ligand concentration 1 nM; details: Compound concentration 10.0 uM
[26] = target: BMP-2-inducible protein kinase (Homo sapiens, UniProt Q9NSY1); test: BIKE(BM2KLGY1) Takeda global kinase panel
[27] = target: Death-associated protein kinase 1 (Homo sapiens, UniProt P53355); test: DAPK1(DAP1LGF1) Takeda global kinase panel
[28] = target: Ribosomal protein S6 kinase alpha-6 (Homo sapiens, UniProt Q9UK32); test: RSK4(R6A6LGF1) Takeda global kinase panel
[29] = target: D(1A) dopamine receptor (Homo sapiens) (UniProt P21728); details: Compound concentration 10.0 uM
[30] = target: L-type calcium channel, dihydropyridine site (Cav1.2 alpha-1C) (Homo sapiens, UniProt Q13936); test: Inhibition of Calcium Channel L-Type, Dihydropyridine at 10 µM in the Eurofins-Panlabs radioligand binding assay (Eurofins_assay_214600); design: ligand concentration 0.1 nM, non-specific ligand with concentration 1 µM Nitrendipine, incubation time 90 min, incubation temperature 25 °C; details: Wistar, rat, rat cerebral cortex preparation, probe [3H] Nitrendipine; compound concentration 10 uM; target entry is the homologue from another species
[31] = target: Serine/threonine-protein kinase 32B (Homo sapiens, UniProt Q9NY57); test: YANK2(S32BLGY2) Takeda global kinase panel
[32] = target: 3-phosphoinositide-dependent protein kinase 1 (Homo sapiens, UniProt O15530); test: PDK1(PDP1LGA1) Takeda global kinase panel
3-phosphoinositide-dependent protein kinase 1, sequence (O15530 whole entry): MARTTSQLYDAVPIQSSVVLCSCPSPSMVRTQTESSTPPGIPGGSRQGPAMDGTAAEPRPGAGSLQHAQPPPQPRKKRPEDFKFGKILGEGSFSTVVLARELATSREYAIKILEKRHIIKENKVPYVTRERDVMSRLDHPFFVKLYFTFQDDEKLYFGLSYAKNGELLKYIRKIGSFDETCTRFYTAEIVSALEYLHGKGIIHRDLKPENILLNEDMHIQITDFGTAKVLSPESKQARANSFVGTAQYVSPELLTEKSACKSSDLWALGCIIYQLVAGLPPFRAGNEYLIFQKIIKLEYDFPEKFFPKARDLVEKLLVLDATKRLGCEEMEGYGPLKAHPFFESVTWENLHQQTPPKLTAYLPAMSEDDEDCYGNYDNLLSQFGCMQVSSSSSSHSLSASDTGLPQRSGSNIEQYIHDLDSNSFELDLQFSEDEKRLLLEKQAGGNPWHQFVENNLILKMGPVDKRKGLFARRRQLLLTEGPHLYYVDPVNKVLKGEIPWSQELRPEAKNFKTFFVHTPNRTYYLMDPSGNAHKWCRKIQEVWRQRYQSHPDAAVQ

[33] = target: Androgen receptor (Homo sapiens) (UniProt P10275); details: Compound concentration 10.0 uM
[34] = target: Cyclin-dependent kinase 12 (Homo sapiens, UniProt Q9NYV4); test: CRK7(CD12PHS1) Takeda global kinase panel
[35] = target: Adenosine receptor A3 (Homo sapiens) (UniProt P0DMS8); details: Compound concentration 10.0 uM
Adenosine receptor A3 (Homo sapiens), sequence (P0DMS8 whole entry): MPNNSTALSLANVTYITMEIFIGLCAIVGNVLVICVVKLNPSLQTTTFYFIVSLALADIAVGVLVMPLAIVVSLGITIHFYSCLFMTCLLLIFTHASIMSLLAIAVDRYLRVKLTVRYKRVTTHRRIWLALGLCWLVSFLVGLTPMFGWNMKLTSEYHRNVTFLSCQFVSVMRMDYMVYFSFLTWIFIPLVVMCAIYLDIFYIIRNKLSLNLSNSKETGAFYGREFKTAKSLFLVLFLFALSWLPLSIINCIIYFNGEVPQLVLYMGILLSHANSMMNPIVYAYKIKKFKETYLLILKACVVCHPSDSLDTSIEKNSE

[36] = target: Serine/threonine-protein kinase PLK1 (Homo sapiens, UniProt P53350); test: PLK1(PLK1LGY1) Takeda global kinase panel
[37] = target: Phosphatidylinositol 4,5-bisphosphate 3-kinase catalytic subunit alpha isoform (Homo sapiens, UniProt P42336); test: PI3KCA(PI3ACGR1) Takeda global kinase panel
[38] = target: Protein kinase C beta type (Homo sapiens, UniProt P05771); test: PKCbeta(PRKBPHY3) Takeda global kinase panel

Adenosine receptor A1 (Homo sapiens), sequence (P30542 whole entry): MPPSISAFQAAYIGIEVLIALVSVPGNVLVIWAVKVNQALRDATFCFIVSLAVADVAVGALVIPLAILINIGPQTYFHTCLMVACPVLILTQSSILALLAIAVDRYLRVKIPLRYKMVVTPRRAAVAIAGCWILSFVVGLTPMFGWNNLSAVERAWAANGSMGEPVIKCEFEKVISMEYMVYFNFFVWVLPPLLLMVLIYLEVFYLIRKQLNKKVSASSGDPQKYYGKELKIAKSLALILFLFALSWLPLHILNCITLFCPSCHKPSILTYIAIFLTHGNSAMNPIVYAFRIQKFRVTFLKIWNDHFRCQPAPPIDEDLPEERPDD

SMILES: CN1C(=O)[C@@H](N2CCc3c(nn(Cc4ccccc4)c3Br)C2=O)COc2ccccc21 [TP-030-2]
- inhibition [1]: 11.7%
- IC50 (Ephrin type-B receptor 3): 1000 nM
- inhibition [2]: 11%
- IC50 [3]: 1000 nM
- IC50 [4]: 1000 nM
- IC50 [5]: 1000 nM
- IC50 [6]: 1000 nM
- Ki ([7]; read-out: Ki): 3480 nM
- Ki ([7]; read-out: pKi (converted)): 3240 nM
- inhibition (Rattus norvegicus): -6%
- IC50 [8]: 10 nM
- inhibition [9]: 38.3%
- IC50 [10]: 1000 nM
- IC50 [11]: 1000 nM
- IC50 [12]: 1000 nM
- IC50 [13]: 1000 nM
- IC50 [14]: 1000 nM
- inhibition at 60 min, 10 µM [15]: 42% (not active)
- inhibition [16]: 6%
- IC50 [17]: 1000 nM
- IC50 [18]: 1000 nM
- IC50 [19]: 1000 nM
- IC50 [20]: 1000 nM
- IC50 (Ephrin type-A receptor 1): 1000 nM
- inhibition [21]: 8%
- IC50 [22]: 1000 nM
- IC50 [23]: 1000 nM
- inhibition [24]: -3.35%
- inhibition [25]: -2%
- IC50 [26]: 1000 nM
- IC50 [27]: 1000 nM
- IC50 [28]: 1000 nM
- inhibition [29]: 16.1%
- inhibition at 90 min, 10 µM [30]: 29% (not active)
- IC50 [31]: 1000 nM
- IC50 [32]: 1000 nM
- inhibition [33]: 6%
- IC50 [34]: 1000 nM
- inhibition [35]: 33%
- IC50 [36]: 1000 nM
- IC50 [37]: 1000 nM
- IC50 [38]: 1000 nM
